Read-outs that look alike come from different tables or passages of the source.
Key:
[1] = biological target: T1, TRPML1 (Homo sapiens, UniProt Q9GZU1); assay: Cellular TRPML1 assay (FLIPR, GCaMP6f calcium read-out); format: cell-based
T1 construct: expressed in transfected cells; host or cells: HEK T-REx cells stably expressing GCaMP6f and TRPML1
Method in brief: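 Read-out is GCaMP6f fluorescence over 300 s after compound addition in Ca2+-free Tyrode's buffer, final DMSO 0.5%, on FLIPR Tetra. Cells are HEK T-REx stably co-expressing the indicator and TRPML1, plated 24 h earlier in Optimem + 0.5% FBS and pre-incubated ~10 min at room temperature.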

[2] = system: TFEB; assay: TFEB translocation assay (TFEB reporter in U2OS cells, imaging); format: cell-based; conditions: Homo sapiens; U2OS cell line with TFEB reporter, 2 hours incubation, nucleus to cytoplasm ratio, normalized to Torin-1; read-out: TFEB Translocation pEC50 (converted)
Method in brief: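 Activity expresses the mean nuclear-to-cytosolic reporter ratio scaled between DMSO (0%) and Torin-1 (100%) controls. Read-out came from high-content imaging of fixed, Hoechst-counterstained U2OS cells carrying mRFP-tagged TFEB after 2 h compound exposure at 37 °C in Opti-MEM with 0.015% Tween 80 and 0.5% DMSO.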

[3] = HEKT-REx/GCaMP6f/TRPML1 cells, FLIPR TETRA, kinetic response over 300 seconds, read-out: TRPML1 FLIPR pEC50 (converted)

T1 sequence (Q9GZU1 whole entry): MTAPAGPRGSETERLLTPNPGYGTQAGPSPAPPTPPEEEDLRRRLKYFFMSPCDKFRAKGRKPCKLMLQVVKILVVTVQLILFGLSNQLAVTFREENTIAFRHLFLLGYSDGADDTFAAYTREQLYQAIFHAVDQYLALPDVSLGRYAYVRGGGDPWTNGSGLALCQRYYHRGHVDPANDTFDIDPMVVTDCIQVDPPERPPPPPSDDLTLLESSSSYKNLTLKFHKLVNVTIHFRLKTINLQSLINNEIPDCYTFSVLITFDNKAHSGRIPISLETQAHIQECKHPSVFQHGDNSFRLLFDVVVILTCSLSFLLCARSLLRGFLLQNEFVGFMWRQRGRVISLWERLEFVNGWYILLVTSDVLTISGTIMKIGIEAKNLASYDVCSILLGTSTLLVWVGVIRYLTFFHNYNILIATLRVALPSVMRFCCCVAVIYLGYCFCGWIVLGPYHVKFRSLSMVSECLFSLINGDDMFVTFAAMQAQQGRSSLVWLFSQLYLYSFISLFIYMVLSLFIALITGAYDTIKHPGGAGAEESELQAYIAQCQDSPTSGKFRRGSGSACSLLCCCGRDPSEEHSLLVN

Row | SMILES | EC50 [1, 3] [nM] | EC50 [2] [nM] | EC50 [1] [nM]
1 | COCC1(C)CN(c2nc(C(=O)Nc3cc(C)c(O[C@@H]4C[C@@H]5C[C@@H]5C4)c(F)c3)c(CC(F)(F)F)o2)C1 [Example 124, N-(4-(cis-bicyclo[3.1.0]hexan-3-yloxy)-3-fluoro-5-methylphenyl)-2-(3-(methoxymethyl)-3-methylazetidin-1-yl)-5-(2,2,2-trifluoroethyl)oxazole-4-carboxamide] | 10 to 1000 | 10 to 1000 | –
2 | O=C(Nc1ccc(OC2CC3CC(C3)C2)c(F)c1)c1nc(N2CCCC2)oc1CC(F)(F)F (centres unmarked) [Example 143, N-(4-(bicyclo[3.1.1]heptan-3-yloxy)-3-fluorophenyl)-2-(pyrrolidin-1-yl)-5-(2,2,2-trifluoroethyl)oxazole-4-carboxamide] | 10 to 1000 | 10 to 1000 | –
3 | CCc1oc(N2CC(C)(C)C2)nc1C(=O)Nc1cc(F)c(N2CC3CC(C3)C2)c(F)c1 [Example 256, N-(4-(3-azabicyclo[3.1.1]heptan-3-yl)-3,5-difluorophenyl)-2-(3,3-dimethylazetidin-1-yl)-5-ethyloxazole-4-carboxamide] | – | 10 to 1000 | 10 to 1000
4 | COC1(C)CN(c2nc(C(=O)Nc3cc(F)c(O[C@@H]4C[C@@H]5C[C@@H]5C4)c(C#N)c3)c(CC(F)(F)F)o2)C1 [Example 142, N-(4-(cis-bicyclo[3.1.0]hexan-3-yloxy)-3-cyano-5-fluorophenyl)-2-(3-methoxy-3-methylazetidin-1-yl)-5-(2,2,2-trifluoroethyl)oxazole-4-carboxamide] | 10 to 1000 | 10 to 1000 | –
5 | O=C(Nc1ccc(N2CCCCC2)c(F)c1)c1nc(N2CCCC2)oc1CC(F)(F)F [Example 32, N-(3-fluoro-4-(piperidin-1-yl)phenyl)-2-(pyrrolidin-1-yl)-5-(2,2,2-trifluoroethyl)oxazole-4-carboxamide] | 1000 to 10000 | 1000 to 10000 | –
6 | O=C(Nc1ccc(N2CCCCC2)c(F)c1)c1nc(N2CCC3(C2)CC(F)(F)C3)oc1CC(F)(F)F [Example 28, 2-(2,2-difluoro-6-azaspiro[3.4]octan-6-yl)-N-(3-fluoro-4-(piperidin-1-yl)phenyl)-5-(2,2,2-trifluoroethyl)oxazole-4-carboxamide] | 1000 to 10000 | 1000 to 10000 | –
7 | O=C(Nc1cc(F)c(OC2CC3C[C@H]3C2)c(F)c1)c1nc(N2C[C@H]3CCO[C@H]3C2)oc1CC(F)(F)F (stereo partly drawn) [Example 179, N-(4-(cis-bicyclo[3.1.0]hexan-3-yloxy)-3,5-difluorophenyl)-2-((3aR,6aR)-hexahydro-5H-furo[2,3-c]pyrrol-5-yl)-5-(2,2,2-trifluoroethyl)oxazole-4-carboxamide] | 10 to 1000 | 10 to 1000 | –

Reference: patent US12098145B2 (Libra Therapeutics, Inc., priority 2022, dated 2024)
